The values below come from US20150045424A1, “COMPOSITION USEFUL FOR THE TREATMENT OF TYPE 2 DIABETES” (SIGMA-TAU INDUSTRIE FARMACEUTICHE RIUNITE S.P.A., priority 2007, published 2015).

What all share (assay type): in vivo, mouse
In assay [1] the test system is C57BL/KsJ db/db mice. Briefly: Oral glucose tolerance test (OGTT) in db/db mice. The note with it: oral twice daily for 18 days, OGTT glucose 3 g/kg, fasted 18 hours, 5 hours after last treatment, n=6. The method, then: (§1) The C57BL/KsJ db/db mice used in the experiments were supplied by Jackson Lab (via Ch. River). After 10 days of acclimatisation in standard conditions (22±2 [deg.]C.; 55±15% humidity; 15-20 air changes/hour; 12 hour light-darkness cycle with light from 7 a.m. to 7 p.m.) on a standard 4 RF21 diet (Mucedola), blood samples were taken in post-absorption conditions (fasting from 8.30 a.m. to 4.30 p.m.) from the caudal vein with the aid of a Jelco 22G catheter (Johnson and Johnson). Glucose, insulin, triglyceride, cholesterol, free fatty acid and urea levels were checked in the plasma to ensure well-matched distribution of the mice in the treatment groups.
(§2) The mice were divided into groups and treated orally twice daily with:
(§3) Simvastatin 100 mg/kg; L-carnitine inner salt 400 mg/kg; acetyl L-carnitine HCl 592 mg/kg (equimolar amount respect to L-carnitine); propionyl L-carnitine HCl 627 mg/kg (equimolar amount respect to L-carnitine); L-carnitine inner salt 400 mg/kg+Simvastatin 100 mg/kg; acetyl L-carnitine HCl 592 mg/kg+Simvastatin 100 mg/kg; propionyl L-carnitine HCl 627 mg/kg+Simvastatin 100 mg/kg.
(§4) In the course of the experiment, serum glucose levels, glucose tolerance (OGTT), a number of lipid status variables and weight gain were monitored.

Assay [2] relates to C57BL/KsJ db/db mice. In words: Plasma fructosamine levels of db/db mice (indicator of protein glycosylation). The following applies: oral twice daily for 25 days, post-absorption (fasting 9 a.m. to 4.30 p.m.), 7.5 hours after last treatment, n=6. The procedure:
as §1, §2, §3, §4

Assay [3] concerns C57BL/KsJ db/db mice. Briefly: Plasma triglyceride levels of db/db mice. The note with it: oral twice daily for 25 days, post-absorption (fasting 9 a.m. to 4.30 p.m.), 7.5 hours after last treatment, n=6. The method, then: as §1, §2, §3, §4
Assay [4] concerns C57BL/KsJ db/db mice. In words: Blood glucose levels of db/db mice (feeding, post-absorption, fasting). The note with it: n=6.
Source text: A much used genetically diabetic mouse model is the C57BL/KsJ db/db mouse.
The genetic basis of this model is a defect in the leptin receptor gene which gives rise to leptin resistance and leads to hyperphagia, obesity, hyperinsulinaemia and insulin resistance, with subsequent symptoms of insufficient insulin secretion and hyperglycaemia (Kodama et al., Diabetologia 37: 739-744, 1994; Chen et al, Cell 84: 491-495, 1996).
as §1
At the start of treatment, the body weight of the animals was checked and monitoring of the animals' consumption of water and feed was scheduled.
as §2, §3, §4

Assay [5] relates to C57BL/KsJ db/db mice. Briefly: Plasma HDL-cholesterol levels of db/db mice. The note with it: oral twice daily for 25 days, post-absorption (fasting 9 a.m. to 4.30 p.m.), 7.5 hours after last treatment, n=6. The method, then:
as §1, §2, §3, §4

Where [6] appears, read: oral twice daily for 12 days, blood sample in feeding condition, approximately 15 hours after last treatment.
Setting [7] is: oral twice daily for 12 days, post-absorption condition (fasting 9 a.m. to 5 p.m.), 8 hours after last treatment.
[8] abbreviates: oral twice daily for 18 days, fasted for 18 hours, 5 hours after last treatment.

`CC(=O)O[C@H](CC(=O)[O-])C[N+](C)(C)C` [Acetyl L-carnitine, acetyl L-carnitine]: in assay [1], the “AUC Glucose (OGTT) Mean values” stood at 49332.3 u.a. Also, in assay [2], the “Fructosamine Mean values” came to 0.85 mM. For the same molecule, in assay [3], the “Triglycerides Mean values” stood at 85.6 mg/dL. Also, the “Glucose Mean values” was 468.0 mg/dL in assay [4] (setting [6]), 416.1 mg/dL in assay [4] (setting [7]) and 332.0 mg/dL in assay [4] (setting [8]). Further, the “HDL-cholesterol Mean values” in assay [5] amounted to 84.5 mg/dL.
For the molecule `C[N+](C)(C)C[C@H](O)CC(=O)[O-]` [L-carnitine], the “AUC Glucose (OGTT) Mean values” in assay [1] is reported as 50187.8 u.a. For the same molecule, in assay [2], the “Fructosamine Mean values” is 0.81 mM. The “Triglycerides Mean values” in assay [3] turned out to be 85.7 mg/dL. Further, the figures for the “Glucose Mean values” in assay [4] (setting [6]), in assay [4] (setting [7]) and in assay [4] (setting [8]) were 470.0 mg/dL, 416.5 mg/dL and 324.8 mg/dL, respectively. The “HDL-cholesterol Mean values” in assay [5] is 84.0 mg/dL.
With `CCC(=O)O[C@H](CC(=O)[O-])C[N+](C)(C)C` [Propionyl L-carnitine, propionyl L-carnitine], the “AUC Glucose (OGTT) Mean values” in assay [1] was 49005.5 u.a. In assay [2], the “Fructosamine Mean values” came out at 0.81 mM. Further, the “Triglycerides Mean values” in assay [3] is 86.2 mg/dL. The “Glucose Mean values” in assay [4] (setting [6]) was determined as 475.5 mg/dL; in assay [4] (setting [7]) it was 411 mg/dL; in assay [4] (setting [8]), 328.6 mg/dL. The “HDL-cholesterol Mean values” in assay [5] worked out at 80.9 mg/dL.
With `CCC(C)(C)C(=O)O[C@H]1C[C@@H](C)C=C2C=C[C@H](C)[C@H](CC[C@@H]3C[C@@H](O)CC(=O)O3)[C@H]21` [Simvastatin], the “AUC Glucose (OGTT) Mean values” in assay [1] was determined as 50973.3 u.a. In assay [2], the “Fructosamine Mean values” was found to be 0.76 mM. Besides, the “Triglycerides Mean values” in assay [3] worked out at 83.6 mg/dL. In addition, the entries for the “Glucose Mean values” in assay [4] (setting [6]), in assay [4] (setting [7]) and in assay [4] (setting [8]) were 465.0 mg/dL, 418.1 mg/dL and 328.3 mg/dL, respectively. Further, the “HDL-cholesterol Mean values” in assay [5] turned out to be 74.5 mg/dL.
